Laboratory results: patent US12037324B2, “Biarylmethyl heterocycles” (Université de Montréal, priority 2016, dated 2024)
Read-outs that look alike come from different tables or passages of the source.

Experiments:
AGTR1 [1] = target: T1, AGTR1 (Homo sapiens, UniProt P30556); test: DiscoveRx β-arrestin2 recruitment assay (enzyme complementation, Pathunter CHO-K1 AGTR1 β-arrestin cell line); assay type: cell-based; conditions: DiscoveRx β-arrestin2 recruitment; for DiscoveRx β-arrestin2 Ymax (%): maximal response
T1 construct: host or cells: Pathunter CHO-K1 AGTR1 β-arrestin cell line (CHO-K1)
T1 sequence (P30556 1-359): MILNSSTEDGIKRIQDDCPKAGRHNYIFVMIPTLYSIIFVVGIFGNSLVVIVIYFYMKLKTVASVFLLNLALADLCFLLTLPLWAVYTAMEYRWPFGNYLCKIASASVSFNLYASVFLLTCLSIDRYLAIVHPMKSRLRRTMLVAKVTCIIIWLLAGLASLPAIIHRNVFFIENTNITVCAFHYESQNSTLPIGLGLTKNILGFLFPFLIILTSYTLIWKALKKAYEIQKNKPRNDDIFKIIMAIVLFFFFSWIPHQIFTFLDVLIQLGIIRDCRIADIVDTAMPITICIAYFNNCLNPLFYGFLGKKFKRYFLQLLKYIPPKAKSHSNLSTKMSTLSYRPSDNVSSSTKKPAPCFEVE
In short: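 CHO-K1 cells expressing AGTR1 with β-arrestin2 enzyme-complementation reporter, plated 14-16 h ahead in 1% serum medium, then exposed to compounds for 90 min at 37° C. Chemiluminescence read after 1 h detection. EC50 (agonist) or IC50 (antagonist) from 4-parameter logistic fit; activity as percentage of All maximal effect.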

hAT1R [2] = target: T2, hAT1R (Homo sapiens, UniProt P30556); test: cell-based
T2 sequence (P30556 1-359): T1 sequence (P30556 1-359)

AGTR1 [3] = target: T1, AGTR1; test: DiscoveRx IP1 accumulation assay (HTRF), agonist mode, Pathunter CHO-K1 AGTR1 β-arrestin cell line; assay type: cell-based; conditions: for EC50: read-out: IP-1 EC50
In short: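 Agonist mode in CHO-K1 AGTR1 β-arrestin cells plated 14-16 h before; compounds at varying concentrations for 90 min at 37° C, IP1 accumulation read by HTRF (D2-conjugate and anti-IP1 cryptate, 20 min room temperature). EC50 from 4-parameter logistic fit; activity given as percentage of maximal AII effect.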

hAT1R [4] = target: T2, hAT1R; test: cell-based; conditions: agonist mode; for EC50: read-out: BRET P63 EC50
[5] = section of the 42nd table ending at r951, example numbering restarts after the DiscoveRx section, read-out: β-arrestin2 EC50
[6] = Low AT1R Expression, read-out: BRET β-Arrestin2 Low AT1R Expression EC50

CCc1nc2c(C)cc(C)nc2n1Cc1ccc(-c2cc(-n3ncc4ccccc43)ccc2-c2nnn[nH]2)cc1 [Example 215, 3-((5′-(1H-Indazol-1-yl)-2′-(1H-tetrazol-5-yl)-[1,1′-biphenyl]-4-yl)methyl)-2-ethyl-5,7-dimethyl-3H-imidazo[4,5-b]pyridine]
EC50 (AGTR1 [1]): 5.1 nM | DiscoveRx β-arrestin2 Ymax (%) (AGTR1 [1]): 46.1% | EC50 (hAT1R [2]; [5]): 4.1 nM | IP-1 Ymax (%) (AGTR1 [3]): 17.3% | EC50 (AGTR1 [3]): 17.6 nM | BRET P63 Ymax (hAT1R [4]): 22.7% | EC50 (hAT1R [4]): 4 nM

CCCC1=NC2(CCOC2)C(=O)N1Cc1ccc(-c2cc(-c3ccccc3O)ccc2-c2nnn[nH]2)cc1 (single isomer, unassigned) [Example 160]
EC50 (AGTR1 [1]): 87.8 nM | DiscoveRx β-arrestin2 Ymax (%) (AGTR1 [1]): 50.2% | EC50 (hAT1R [2]; [5]): 98.5 nM | IP-1 Ymax (%) (AGTR1 [3]): 15.8% | EC50 (AGTR1 [3]): 132 nM | BRET P63 Ymax (hAT1R [4]): 18.6% | EC50 (hAT1R [4]): 79.7 nM

CCc1nc2c(C)cc(C)nc2n1Cc1ccc(-c2cc(-n3cnc4ccccc43)ccc2-c2nnn[nH]2)cc1 [Example 222]
EC50 (AGTR1 [1]): 56.9 nM | DiscoveRx β-arrestin2 Ymax (%) (AGTR1 [1]): 42.7% | EC50 (hAT1R [2]; [5]): 98.5 nM | IP-1 Ymax (%) (AGTR1 [3]): 4.9% | EC50 (AGTR1 [3]): 187 nM | EC50 (hAT1R [4]): > 100000 nM

CCCC1=NC2(CCOC2)C(=O)N1Cc1ccc(-c2cc(-c3cccc(C)c3)ccc2-c2nnn[nH]2)cc1 (single isomer, unassigned) [Example 159]
EC50 (AGTR1 [1]): 51.4 nM | DiscoveRx β-arrestin2 Ymax (%) (AGTR1 [1]): 44.0% | EC50 (hAT1R [2]; [5]): 40.3 nM | IP-1 Ymax (%) (AGTR1 [3]): 11.3% | EC50 (AGTR1 [3]): 78.1 nM | BRET P63 Ymax (hAT1R [4]): 11.5% | EC50 (hAT1R [4]): 79.3 nM

CCc1nc2c(C)cc(C)nc2n1Cc1ccc(-c2cc(-c3ccccn3)ccc2C(=O)O)cc1 [Example 192, 4′-((2-ethyl-5,7-dimethyl-3H-imidazo[4,5-b]pyridin-3-yl)methyl)-5-(pyridin-2-yl)biphenyl-2-carboxylic acid]
EC50 (AGTR1 [1]): 94.3 nM | DiscoveRx β-arrestin2 Ymax (%) (AGTR1 [1]): 45.1% | EC50 (hAT1R [2]; [5]): 127 nM | IP-1 Ymax (%) (AGTR1 [3]): 11.1% | EC50 (AGTR1 [3]): 223 nM | EC50 (hAT1R [4]): > 100000 nM

CCc1nc2c(C)cc(C)nc2n1Cc1ccc(-c2cc(-c3cn(CC(C)C)nn3)ccc2-c2nnn[nH]2)cc1 [Example 240]
EC50 (AGTR1 [1]): 48.6 nM | DiscoveRx β-arrestin2 Ymax (%) (AGTR1 [1]): 42.0% | EC50 (hAT1R [2]; [5]): 345 nM | IP-1 Ymax (%) (AGTR1 [3]): 14.1% | EC50 (AGTR1 [3]): 122 nM | BRET P63 Ymax (hAT1R [4]): 9.5% | EC50 (hAT1R [4]): 60.1 nM

CCc1nc2c(C)cc(C)nc2n1Cc1ccc(-c2cc(Oc3cccnc3F)ccc2-c2nn[nH]n2)cc1 [Example 262]
EC50 (AGTR1 [1]): 19.9 nM | DiscoveRx β-arrestin2 Ymax (%) (AGTR1 [1]): 50.8% | EC50 (hAT1R [2]; [5]): 14.3 nM | IP-1 Ymax (%) (AGTR1 [3]): 8.6% | EC50 (AGTR1 [3]): 37.9 nM | BRET P63 Ymax (hAT1R [4]): 14.4% | EC50 (hAT1R [4]): 11.2 nM

CCc1nc2c(C)cc(C)nc2n1Cc1ccc(-c2cc(-n3ccc(C)n3)ccc2-c2nnn[nH]2)cc1 [Example 218]
EC50 (AGTR1 [1]): 45.9 nM | DiscoveRx β-arrestin2 Ymax (%) (AGTR1 [1]): 21.5% | EC50 (hAT1R [2]; [5]): > 10000 nM | IP-1 Ymax (%) (AGTR1 [3]): 4.6% | EC50 (AGTR1 [3]): 33.3 nM | EC50 (hAT1R [4]): > 10000 nM

CCCC1=NC2(CCCC2)C(=O)N1Cc1ccc(-c2cc(-c3cc(OC)ccn3)ccc2-c2nn[nH]n2)cc1 [Example 115, 3-((5′-(4-methoxypyridin-2-yl)-2′-(2H-tetrazol-5-yl)-[1,1′-biphenyl]-4-yl)methyl)-2-propyl-1,3-diazaspiro[4.4]non-1-en-4-one]
EC50 (AGTR1 [1]): 13.3 nM | DiscoveRx β-arrestin2 Ymax (%) (AGTR1 [1]): 30.8% | BRET β-Arrestin2 Low AT1R Expression Ymax (%) (hAT1R [2]; Low AT1R Expression): 53.3% | EC50 (hAT1R [2]; [6]): 16.8 nM | IP-1 Ymax (%) (AGTR1 [3]): 13.6% | EC50 (AGTR1 [3]): 39.3 nM | BRET P63 Ymax (hAT1R [4]): 22.1% | EC50 (hAT1R [4]): 11.9 nM

CCc1nc2c(C)cc(C)nc2n1Cc1ccc(-c2cc(C3CCCCCC3)ccc2-c2nn[nH]n2)cc1 [Example 81]
EC50 (AGTR1 [1]): 38.3 nM | DiscoveRx β-arrestin2 Ymax (%) (AGTR1 [1]): 17.6% | BRET β-Arrestin2 Low AT1R Expression Ymax (%) (hAT1R [2]; Low AT1R Expression): 16.3% | EC50 (hAT1R [2]; [6]): 38.3 nM | EC50 (AGTR1 [3]): > 100000 nM | EC50 (hAT1R [4]): > 100000 nM

CCc1nc2c(C)cc(C)nc2n1Cc1ccc(-c2cc(-n3cc(C)nn3)ccc2-c2nnn[nH]2)cc1 [Example 232]
EC50 (AGTR1 [1]): 16.9 nM | DiscoveRx β-arrestin2 Ymax (%) (AGTR1 [1]): 41.5% | EC50 (hAT1R [2]; [5]): 101 nM | IP-1 Ymax (%) (AGTR1 [3]): 7.5% | EC50 (AGTR1 [3]): 60 nM | EC50 (hAT1R [4]): > 100000 nM

CCc1nc2c(C)cc(C)nc2n1Cc1ccc(-c2cc(C3CCCOC3)ccc2-c2nn[nH]n2)cc1 (stereo not shown) [Example 79]
EC50 (AGTR1 [1]): 286 nM | DiscoveRx β-arrestin2 Ymax (%) (AGTR1 [1]): 31.7% | BRET β-Arrestin2 Low AT1R Expression Ymax (%) (hAT1R [2]; Low AT1R Expression): 21.1% | EC50 (hAT1R [2]; [6]): 464 nM | IP-1 Ymax (%) (AGTR1 [3]): 9.4% | EC50 (AGTR1 [3]): 499 nM | EC50 (hAT1R [4]): > 10000 nM

CCCCC1=NC2(CCOCC2)C(=O)N1Cc1ccc(-c2cc(-c3cc(C)ccn3)ccc2-c2nn[nH]n2)cc1 [Example 171, 2-butyl-3-((5′-(4-methylpyridin-2-yl)-2′-(2H-tetrazol-5-yl)-[1,1′-biphenyl]-4-yl)methyl)-8-oxa-1,3-diazaspiro[4.5]dec-1-en-4-one]
EC50 (AGTR1 [1]): 33.5 nM | DiscoveRx β-arrestin2 Ymax (%) (AGTR1 [1]): 38.6% | EC50 (hAT1R [2]; [5]): 68.4 nM | IP-1 Ymax (%) (AGTR1 [3]): 68.1% | EC50 (AGTR1 [3]): 8120 nM | BRET P63 Ymax (hAT1R [4]): 20.1% | EC50 (hAT1R [4]): 30.9 nM

CCCCC1=NC2(CCOC2)C(=O)N1Cc1ccc(-c2cc(-c3ccccc3O)ccc2-c2nnn[nH]2)cc1 (single isomer, unassigned) [Example 151]
EC50 (AGTR1 [1]): 76.4 nM | DiscoveRx β-arrestin2 Ymax (%) (AGTR1 [1]): 44.3% | BRET β-Arrestin2 Low AT1R Expression Ymax (%) (hAT1R [2]; Low AT1R Expression): 42.5% | EC50 (hAT1R [2]; [6]): 419 nM | IP-1 Ymax (%) (AGTR1 [3]): 14.0% | EC50 (AGTR1 [3]): 607 nM | BRET P63 Ymax (hAT1R [4]): 11.0% | EC50 (hAT1R [4]): 174 nM

CCC1=NC2(CCCC2)C(=O)N1Cc1ccc(-c2cc(-c3cc(C)ccn3)ccc2-c2nn[nH]n2)cc1 [Example 113]
EC50 (AGTR1 [1]): 14.9 nM | DiscoveRx β-arrestin2 Ymax (%) (AGTR1 [1]): 66.3% | BRET β-Arrestin2 Low AT1R Expression Ymax (%) (hAT1R [2]; Low AT1R Expression): 88.6% | EC50 (hAT1R [2]; [6]): 9.8 nM | IP-1 Ymax (%) (AGTR1 [3]): 17.8% | EC50 (AGTR1 [3]): 83.5 nM | BRET P63 Ymax (hAT1R [4]): 28.6% | EC50 (hAT1R [4]): 17.2 nM

CCc1nc2c(C)cc(C)nc2n1Cc1ccc(-c2cc(-c3cc(C)cc(C)n3)ccc2C(=O)O)cc1 [Example 194]
EC50 (AGTR1 [1]): 63.2 nM | DiscoveRx β-arrestin2 Ymax (%) (AGTR1 [1]): 36.6% | EC50 (hAT1R [2]; [5]): 295 nM | IP-1 Ymax (%) (AGTR1 [3]): 14.5% | EC50 (AGTR1 [3]): 214 nM | BRET P63 Ymax (hAT1R [4]): 16.2% | EC50 (hAT1R [4]): 278 nM

CCCC1=NC2(CCOC2)C(=O)N1Cc1ccc(-c2cc(-c3ccccc3F)ccc2-c2nnn[nH]2)cc1 (single isomer, unassigned) [Example 161]
EC50 (AGTR1 [1]): 88.5 nM | DiscoveRx β-arrestin2 Ymax (%) (AGTR1 [1]): 40.7% | EC50 (hAT1R [2]; [5]): 46.3 nM | IP-1 Ymax (%) (AGTR1 [3]): 14.2% | EC50 (AGTR1 [3]): 203 nM | BRET P63 Ymax (hAT1R [4]): 10.9% | EC50 (hAT1R [4]): 49.6 nM

CCc1nc2c(C)cc(C)nc2n1Cc1ccc(-c2cc(-n3cc(C)cn3)ccc2-c2nnn[nH]2)cc1 [Example 217, 2-ethyl-5,7-dimethyl-3-((5′-(4-methyl-1H-pyrazol-1-yl)-2′-(1H-tetrazol-5-yl)-[1,1′-biphenyl]-4-yl)methyl)-3H-imidazo[4,5-b]pyridine]
EC50 (AGTR1 [1]): 4.6 nM | DiscoveRx β-arrestin2 Ymax (%) (AGTR1 [1]): 70.3% | EC50 (hAT1R [2]; [5]): 3 nM | IP-1 Ymax (%) (AGTR1 [3]): 21.8% | EC50 (AGTR1 [3]): 22.5 nM | BRET P63 Ymax (hAT1R [4]): 32.1% | EC50 (hAT1R [4]): 2.7 nM
